Test results reported in ChEMBL document CHEMBL3399969, “Multifunctional scutellarin-rivastigmine hybrids with cholinergic, antioxidant, biometal chelating and neuroprotective properties for the treatment of Alzheimer's disease” (Bioorg Med Chem, 2015).
pIC50: −log10 of the molar value. Activity calls are given as the source filed them. The rule behind the calls is not given here.

Legend:
Acetylcholinesterase = target: T1, Acetylcholinesterase (Rattus norvegicus, UniProt P37136); test: Inhibition of rat cortex AChE using acetylthiocholine iodide as substrate after 15 mins by Ellman method
T1 sequence (P37136 whole entry): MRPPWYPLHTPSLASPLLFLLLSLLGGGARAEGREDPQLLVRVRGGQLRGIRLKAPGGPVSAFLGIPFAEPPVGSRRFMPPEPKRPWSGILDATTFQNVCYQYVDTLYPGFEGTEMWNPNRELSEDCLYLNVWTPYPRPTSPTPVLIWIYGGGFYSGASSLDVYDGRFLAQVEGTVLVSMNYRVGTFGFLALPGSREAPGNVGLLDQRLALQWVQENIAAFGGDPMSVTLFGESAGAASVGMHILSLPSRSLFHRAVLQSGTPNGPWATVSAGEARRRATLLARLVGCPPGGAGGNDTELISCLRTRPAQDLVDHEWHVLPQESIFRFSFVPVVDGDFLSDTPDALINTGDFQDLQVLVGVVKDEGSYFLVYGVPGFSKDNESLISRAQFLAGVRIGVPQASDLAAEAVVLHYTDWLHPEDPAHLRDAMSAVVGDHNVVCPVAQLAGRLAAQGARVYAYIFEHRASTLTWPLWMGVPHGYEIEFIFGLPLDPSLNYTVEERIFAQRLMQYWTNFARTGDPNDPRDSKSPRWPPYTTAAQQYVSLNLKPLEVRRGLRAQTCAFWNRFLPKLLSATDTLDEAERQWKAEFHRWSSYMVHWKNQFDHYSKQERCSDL

[1] = Inhibition of rat serum BuChE using butyrylthiocholine iodide as substrate after 15 mins by Ellman method; type: cell-free
Rattus norvegicus = species on record: Rattus norvegicus; test: Selectivity index, ratio of IC50 for rat serum BuChE to IC50 for rat cortex AChE; type: cell-free
[2] = target: Acetylcholinesterase (Electrophorus electricus) (UniProt O42275); test: Mixed-type inhibition of electric eel AChE using acetylthiocholine iodide as substrate at 0.5 to 1.5 uM after 15 mins by Lineweaver-Burk reciprocal plot analysis
Acetylcholinesterase (Electrophorus electricus), sequence (O42275 24-633 limits assumed): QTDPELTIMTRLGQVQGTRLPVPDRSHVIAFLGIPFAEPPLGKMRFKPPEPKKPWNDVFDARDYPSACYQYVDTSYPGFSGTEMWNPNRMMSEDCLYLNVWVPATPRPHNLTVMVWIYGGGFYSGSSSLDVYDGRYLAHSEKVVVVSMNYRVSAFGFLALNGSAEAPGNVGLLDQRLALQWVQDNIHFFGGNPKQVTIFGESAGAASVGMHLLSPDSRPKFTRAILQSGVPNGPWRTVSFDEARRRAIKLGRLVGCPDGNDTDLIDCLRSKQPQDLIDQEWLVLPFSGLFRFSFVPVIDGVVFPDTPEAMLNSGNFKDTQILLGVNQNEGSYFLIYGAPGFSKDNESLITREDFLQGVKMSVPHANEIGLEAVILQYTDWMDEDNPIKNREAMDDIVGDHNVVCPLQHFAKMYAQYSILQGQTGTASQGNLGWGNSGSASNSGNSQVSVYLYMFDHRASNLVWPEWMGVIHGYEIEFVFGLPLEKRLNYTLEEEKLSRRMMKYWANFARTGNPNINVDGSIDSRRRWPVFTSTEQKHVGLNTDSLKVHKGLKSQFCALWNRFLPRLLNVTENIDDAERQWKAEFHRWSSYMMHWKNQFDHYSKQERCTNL

[3] = Metal chelating activity of the compound assessed as Cu2+ complex formation after 30 mins by UV-Vis spectrometry; type: physicochemical; conditions: 0.5 h
[4] = Metal chelating activity of the compound assessed as Zn2+ complex formation after 30 mins by UV-Vis spectrometry; type: physicochemical; conditions: 0.5 h
[5] = Metal chelating activity of the compound assessed as Al3+ complex formation after 30 mins by UV-Vis spectrometry; type: physicochemical; conditions: 0.5 h
[6] = Metal chelating activity of the compound assessed as Fe2+ complex formation after 30 mins by UV-Vis spectrometry; type: physicochemical; conditions: 0.5 h
[7] = Antioxidant activity assessed as trolox equivalent of […]-induced radical scavenging activity by ORAC-FL method; type: physicochemical
PC-12 = test: Neuroprotective effect against H2O2-induced rat PC12 cell injury assessed as cell viability at 10 uM incubated for 2 hrs prior to H2O2 challenge measured after 24 hrs by MTT assay (reference value: 57.6%); type: functional; conditions: read-out: Activity
Mus musculus [8] = test: Toxicity in Kunming mouse assessed as change in behavior at 6 mg/kg; type: organism-based; design: dose 6 mg/kg; conditions: in vivo
Mus musculus [9] = test: Toxicity in Kunming mouse assessed as change in behavior at 2 to 8 mg/kg; type: organism-based; design: dose 2-8 mg/kg; conditions: in vivo
Mus musculus [10] = species on record: Mus musculus; test: Cognitive enhancing effect in Kunming mouse assessed as inhibition of scopolamine-induced decreased spontaneous alternation behavior after 30 mins by T-maze test; type: functional, organism-based
Mus musculus [11] = test: Cognitive enhancing effect in Kunming mouse assessed as inhibition of scopolamine-induced decreased spontaneous alternation behavior at 8 mg/kg after 30 mins by T-maze test; type: functional; design: scale not given: the % may be the effect or the level left
Mus musculus [12] = species on record: Mus musculus; test: Neuroprotective effect in Kunming mouse hippocampus assessed as reduction of scopolamine-induced vitality of AChE by Ellman method; type: functional, organism-based
Mus musculus [13] = test: Neuroprotective effect in Kunming mouse hippocampus assessed as reduction of scopolamine-induced vitality of AChE at 8 mg/kg by Ellman method; type: functional
Mus musculus [14] = species on record: Mus musculus; test: Neuroprotective effect in scopolamine-treated Kunming mouse hippocampus assessed as increase in vitality of ChAT by Ellman method; type: functional, organism-based
Mus musculus [15] = test: Neuroprotective effect in scopolamine-treated Kunming mouse hippocampus assessed as increase in vitality of ChAT at 8 mg/kg by Ellman method; type: functional
Mus musculus [16] = test: Cognitive enhancing effect in Kunming mouse assessed as inhibition of scopolamine-induced decreased spontaneous alternation behavior at 6 mg/kg after 30 mins by T-maze test; type: functional; design: scale not given: the % may be the effect or the level left
Mus musculus [17] = test: Neuroprotective effect in Kunming mouse hippocampus assessed as reduction of scopolamine-induced vitality of AChE at 6 mg/kg by Ellman method; type: functional
Mus musculus [18] = test: Neuroprotective effect in scopolamine-treated Kunming mouse hippocampus assessed as increase in vitality of ChAT at 6 mg/kg by Ellman method; type: functional

Question: With `CCN(CC)C(=O)Oc1ccc(-c2cc(=O)c3c(O)c(OC)c(OC)cc3o2)cc1` as the compound, how does the pIC50 (Acetylcholinesterase) read?
Answer: 6.24

Question: And the pIC50 [1]?
Answer: 4.65

Question: What about the Ratio IC50 (Rattus norvegicus) of the same compound?
Answer: 39.7

Question: What about the inhibition [2] of the same compound?
Answer: Active

Question: And the Activity [3]?
Answer: Not Active

Question: And the Activity [4]?
Answer: Not Active

Question: What about the Activity [5] of the same compound?
Answer: Not Active

Question: And the Activity [6]?
Answer: Not Active

Question: What about the Activity [7] of the same compound?
Answer: 1.3

Question: What about the viability at 10 µM (PC-12) of the same compound?
Answer: 78.5%

Question: And the Activity (Mus musculus [8])?
Answer: Non-toxic

Question: And the Activity (Mus musculus [9])?
Answer: Non-toxic

Question: What about the Activity (Mus musculus [10]) of the same compound?
Answer: Dose-dependent effect

Question: And the Activity (Mus musculus [11])?
Answer: 68.7%

Question: What about the Activity (Mus musculus [12]) of the same compound?
Answer: Dose-dependent effect

Question: And the Activity (Mus musculus [13])?
Answer: 0.11 U/mg

Question: And the Activity (Mus musculus [14])?
Answer: Dose-dependent effect

Question: What about the Activity (Mus musculus [15]) of the same compound?
Answer: 45.2 U/mg

Question: With `CCN(C)C(=O)Oc1cccc([C@H](C)N(C)C)c1` [RIVASTIGMINE] as the compound, how does the pIC50 [1] read?
Answer: 5.85

Question: And the Activity (Mus musculus [16])?
Answer: 67.3%

Question: And the Activity (Mus musculus [17])?
Answer: 0.087 U/mg

Question: And the Activity (Mus musculus [18])?
Answer: 44.8 U/mg
